Source: patent EP1282414B1, “FELBAMATE DERIVED COMPOUNDS FOR TREATING NEUROPATHIC PAIN” (University of Virginia Patent Foundation, priority 2000, dated 2001)

Assays:
[1] = tested on: MES-induced seizure spread; assay: Maximal Electroshock Seizure (MES) test, mice i.p.; format: in vivo; conditions: for MES, number of animals protected / total number of animals tested: mice i.p.
Source text: (§1) The fluoro derivatives synthesized were submitted to the National Institute of Neurological Disorders and Stroke (NINDS) for evaluation in a standard panel of assays. Two convulsant tests (MES and scMET), and a toxicity screen (rotorod in mice, positional sense and gait in rats) were employed for evaluating the compounds activity as neuroprotecting agents. These testing procedures are described in detail in Molecular and Cellular Targets for Anti-epileptic Drugs, eds. G. Avanzini, G. Regesta, P. Tanganelli, M. Avoli, 1997, John Libbey & Company Ltd, pp 191-198. The felbamate derivatives were evaluated for anticonvulsant activity following intraperitoneal (i.p.) administration in mice and oral administration in rats.
The MES test is a model for generalized tonic-clonic seizures and is used to identify compounds which prevent seizure spread. The behavioral and electrographic seizures generated in this model are consistent with the human disorder. In the MES test, an electrical stimulus of 0.2 s in duration (50 mA in mice and 150 mA in rat at 60Hz) was delivered via corneal electrodes primed with an electrolyte solution containing an anesthetic agent. […] Rats were tested at time intervals between 0.25 and 4 hours following a standard oral dose of 30 mg/kg. Abolition of the hindlimb tonic extensor component indicates the test compound's ability to inhibit MES-induced seizure spread.
(§2) For the MES and scMET tests the data is presented in the form of the number of animals protected by the administered compound / total number of animals tested. […] Qualitative data was obtained for fluoro felbamate 12 (Tables 1 and 2A), fluoro monocarbamate felbamate 13 (Tables 1 and 2B), and fluorodioxo 16 (Tables 1 and 2C) and for cyclic felbamate 21 (Tables 5 and 6B) and cyclic monocarbamate 22 (Tables 5 and 6A). More extensive quantitative data was also obtained for fluoro felbamate 12 in mice (Table 3) and rats (Table 4).

pentylenetetrazol = assay: Subcutaneous Metrazol seizure test (scMET), mice i.p.; format: in vivo, Carworth Farms No. 1 mice; conditions: mice i.p.
Source text: as §1
This is a model that primarily identifies compounds that raise seizure threshold. With some minor exceptions, the pharmacological profile of the scMET seizure model is consistent with the human condition. The scMET test utilizes a dose of pentylenetetrazol (85 mg/kg in Carworth Farms No. 1 mice and 70 mg/kg in Sprague-Dawley rats) that induces clonic seizures lasting for a period of at least five seconds in 97 % (CD97) of animals tested. At the anticipated time of testing the convulsant is administered subcutaneously. The test compound is administered intraperitoneally in mice and orally in rats. Animals are observed over a 30 minute period. Absence of clonic spasms in the observed time period indicates a compound's ability to abolish the effect of pentylenetetrazol on seizure threshold.
as §2

rats = assay: Minimal neurotoxicity (TOX), positional sense and gait and stance tests, rats p.o.; format: in vivo; conditions: rat p.o., 30 mg/kg
Source text: as §1, with “G. Avanzini, G. Regesta, P. Tanganelli, M. Avoli, 1997, John Libbey & Company Ltd, pp 191-198.” left out
Rats are examined for behavioral toxicity by the positional sense test and a gait and stance test. […] In the gait and stance test, neurotoxicity is indicated by a circular or zigzag gait, ataxia, abnormal spread of the legs, abnormal posture, tremor hyperactivity, lack of exploratory behavior, somnolence, stupor or catalepsy. […]

[2] = tested on: MES-induced seizure spread; assay: Maximal Electroshock Seizure (MES) test, rats p.o.; format: in vivo, rat; conditions: for MES, number of animals protected / total number of animals tested: rat p.o., 30 mg/kg; for anti-seizure activity (in words): rats
Source text: as §1
The MES test is a model for generalized tonic-clonic seizures and is used to identify compounds which prevent seizure spread. The behavioral and electrographic seizures generated in this model are consistent with the human disorder. In the MES test, an electrical stimulus of 0.2 s in duration (50 mA in mice and 150 mA in rat at 60Hz) was delivered via corneal electrodes primed with an electrolyte solution containing an anesthetic agent. Mice were tested at 30 minutes and 4 hours following doses of 30, 100 and 300 mg/kg of test compound. Rats were tested at time intervals between 0.25 and 4 hours following a standard oral dose of 30 mg/kg. Abolition of the hindlimb tonic extensor component indicates the test compound's ability to inhibit MES-induced seizure spread.
as §2

mice = assay: Minimal neurotoxicity (TOX), rotorod test, mice i.p.; format: in vivo; conditions: mice i.p.
Source text: as §1, with “G. Avanzini, G. Regesta, P. Tanganelli, M. Avoli, 1997, John Libbey & Company Ltd, pp 191-198.” left out, “rats. […]” for “rats.”

SMILES | MES, number of animals protected / total number of animals tested ([1]; 30 mg/kg, 0.5h) | MES, number of animals protected / total number of animals tested ([1]; 30 mg/kg, 4.0h) | MES, number of animals protected / total number of animals tested ([1]; 100 mg/kg, 0.5h) | MES, number of animals protected / total number of animals tested ([1]; 300 mg/kg, 0.5h) | ScMET, number of animals protected / total number of animals tested (pentylenetetrazol; 30 mg/kg, 0.5h) | ScMET, number of animals protected / total number of animals tested (pentylenetetrazol; 100 mg/kg, 0.5h) | ScMET, number of animals protected / total number of animals tested (pentylenetetrazol; 300 mg/kg, 0.5h) | TOX, number of animals exhibiting toxic effects / total number of animals tested (rats; 0.25h) | TOX, number of animals exhibiting toxic effects / total number of animals tested (rats; 0.5h) | TOX, number of animals exhibiting toxic effects / total number of animals tested (rats; 1.0h) | TOX, number of animals exhibiting toxic effects / total number of animals tested (rats; 2.0h) | TOX, number of animals exhibiting toxic effects / total number of animals tested (rats; 4.0h) | MES, number of animals protected / total number of animals tested ([2]; 0.25h) | MES, number of animals protected / total number of animals tested ([2]; 0.5h) | MES, number of animals protected / total number of animals tested ([2]; 1.0h) | MES, number of animals protected / total number of animals tested ([2]; 2.0h) | MES, number of animals protected / total number of animals tested ([2]; 4.0h) | TOX, number of animals exhibiting toxic effects / total number of animals tested (mice; 30 mg/kg, 0.5h) | TOX, number of animals exhibiting toxic effects / total number of animals tested (mice; 100 mg/kg, 0.5h) | TOX, number of animals exhibiting toxic effects / total number of animals tested (mice; 300 mg/kg, 0.5h) | also measured
O=C1NC(=O)C(F)(c2ccccc2)CO1 (stereo not shown) [fluoro dioxo, 5-Fluoro-5-phenyl-1,3-oxazinane-2,4-dione] | 0/1 | 0/1 | 0/3 | 0/1 | 0/1 | 0/1 | 0/1 | 0/4 | 0/4 | 0/4 | 0/4 | 0/4 | 0/4 | 1/4 | 1/4 | 1/4 | 2/4 | 0/4 | 0/8 | 1/4 | anti-seizure activity (in words) ([1]; mice): inactive; MES, number of animals protected / total number of animals tested ([1]; 100 mg/kg, 4.0h): 0/3; MES, number of animals protected / total number of animals tested ([1]; 300 mg/kg, 4.0h): 0/1; ScMET, number of animals protected / total number of animals tested (pentylenetetrazol; 30 mg/kg, 4.0h): 0/1; ScMET, number of animals protected / total number of animals tested (pentylenetetrazol; 100 mg/kg, 4.0h): 0/1; ScMET, number of animals protected / total number of animals tested (pentylenetetrazol; 300 mg/kg, 4.0h): 0/1; anti-seizure activity (in words) [2]: strong anti-seizure activity; TOX, number of animals exhibiting toxic effects / total number of animals tested (mice; 30 mg/kg, 4.0h): 0/2; TOX, number of animals exhibiting toxic effects / total number of animals tested (mice; 100 mg/kg, 4.0h): 0/4; TOX, number of animals exhibiting toxic effects / total number of animals tested (mice; 300 mg/kg, 4.0h): 0/2
NC(=O)OCC(F)(CO)c1ccccc1 (stereo not shown) [fluoro monocarbamate felbamate, 2-Fluoro-2-phenyl-1,3-propanediol monocarbamate] | 0/1 | 0/1 | 2/3 | 1/1 | 0/1 | 0/1 | 1/1 | 0/4 | 0/4 | 0/4 | 0/4 | 0/4 | 0/4 | 3/4 | 0/4 | 1/4 | 0/4 | 0/4 | 3/8 | 2/4 | MES, number of animals protected / total number of animals tested ([1]; 100 mg/kg, 4.0h): 0/3; MES, number of animals protected / total number of animals tested ([1]; 300 mg/kg, 4.0h): 0/1; MES protection (in words) ([1]; mice, 100 mg/kg): moderate MES protection; ScMET, number of animals protected / total number of animals tested (pentylenetetrazol; 30 mg/kg, 4.0h): 0/1; ScMET, number of animals protected / total number of animals tested (pentylenetetrazol; 100 mg/kg, 4.0h): 0/1; ScMET, number of animals protected / total number of animals tested (pentylenetetrazol; 300 mg/kg, 4.0h): 0/1; TOX, number of animals exhibiting toxic effects / total number of animals tested (mice; 30 mg/kg, 4.0h): 0/2; TOX, number of animals exhibiting toxic effects / total number of animals tested (mice; 100 mg/kg, 4.0h): 0/4; TOX, number of animals exhibiting toxic effects / total number of animals tested (mice; 300 mg/kg, 4.0h): 0/2
O=C1NC(O)C(c2ccccc2)CO1 (stereo not shown) [Cyclic MCF] | 0/1 | – | 0/3 | 1/1 | 0/1 | 2/5 | 2/5 | 0/4 | 0/4 | 0/4 | 0/4 | 0/4 | 0/4 | 0/4 | 1/4 | 2/4 | 3/4 | 0/4 | 0/8 | 0/4 | MES, number of animals protected / total number of animals tested ([1]; 30 mg/kg, 2.0h): 0/1; MES, number of animals protected / total number of animals tested ([1]; 100 mg/kg, 2.0h): 2/3; MES, number of animals protected / total number of animals tested ([1]; 300 mg/kg, 2.0h): 1/1; ScMET, number of animals protected / total number of animals tested (pentylenetetrazol; 30 mg/kg, 2.0h): 0/1; ScMET, number of animals protected / total number of animals tested (pentylenetetrazol; 100 mg/kg, 2.0h): 0/1; ScMET, number of animals protected / total number of animals tested (pentylenetetrazol; 300 mg/kg, 2.0h): 0/1; anti-seizure activity (in words) [2]: potent activity; TOX, number of animals exhibiting toxic effects / total number of animals tested (mice; 30 mg/kg, 2.0h): 0/2; TOX, number of animals exhibiting toxic effects / total number of animals tested (mice; 100 mg/kg, 2.0h): 0/4; TOX, number of animals exhibiting toxic effects / total number of animals tested (mice; 300 mg/kg, 2.0h): 0/2
